Reference: paper PMC4505863 (ACS Chemical Neuroscience, 2014)
Entries after “also recorded” stand apart in the source; their conditions may differ. Like-named read-outs stand apart in the source and are kept apart here.

Experiments:
[1] = system: mice; details: 34−36; cited from earlier work
[2] = molecular target: T1, 5-HT2A receptor (Homo sapiens, UniProt P28223); test: h5-HT2A affinity, antagonist radioligand [3H]ketanserin; format: binding
[3] = molecular target: T1, 5-HT2A receptor; test: h5-HT2A affinity, agonist radioligand [125I]DOI; format: binding
[4] = molecular target: T2, human 5-HT2C receptor (Homo sapiens, UniProt P28335); test: h5-HT2C affinity, antagonist radioligand [3H]mesulergine; format: binding
T2 sequence (P28335 33-458): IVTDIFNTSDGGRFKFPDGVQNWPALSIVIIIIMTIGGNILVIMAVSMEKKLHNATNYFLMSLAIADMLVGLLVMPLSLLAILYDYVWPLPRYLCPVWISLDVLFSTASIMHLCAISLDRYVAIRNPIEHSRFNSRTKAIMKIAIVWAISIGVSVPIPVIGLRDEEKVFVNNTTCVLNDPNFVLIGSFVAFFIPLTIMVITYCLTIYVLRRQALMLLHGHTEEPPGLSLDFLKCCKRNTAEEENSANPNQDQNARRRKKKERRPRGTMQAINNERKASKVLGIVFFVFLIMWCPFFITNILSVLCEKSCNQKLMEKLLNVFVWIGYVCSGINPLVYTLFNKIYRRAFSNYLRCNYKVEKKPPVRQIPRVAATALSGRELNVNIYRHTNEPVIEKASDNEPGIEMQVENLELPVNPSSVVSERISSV

[5] = molecular target: T2, human 5-HT2C receptor; test: h5-HT2C affinity, agonist radioligand [125I]DOI; format: binding
[6] = molecular target: 5-HT2B (Homo sapiens, UniProt P41595); test: PDSP screening affinity 5-HT2B; format: binding
[7] = molecular target: T3, 5-HT1A (Homo sapiens, UniProt P08908); test: PDSP screening affinity 5-HT1A; format: binding; details: 5-HT1A affinity
T3 sequence (P08908 1-422): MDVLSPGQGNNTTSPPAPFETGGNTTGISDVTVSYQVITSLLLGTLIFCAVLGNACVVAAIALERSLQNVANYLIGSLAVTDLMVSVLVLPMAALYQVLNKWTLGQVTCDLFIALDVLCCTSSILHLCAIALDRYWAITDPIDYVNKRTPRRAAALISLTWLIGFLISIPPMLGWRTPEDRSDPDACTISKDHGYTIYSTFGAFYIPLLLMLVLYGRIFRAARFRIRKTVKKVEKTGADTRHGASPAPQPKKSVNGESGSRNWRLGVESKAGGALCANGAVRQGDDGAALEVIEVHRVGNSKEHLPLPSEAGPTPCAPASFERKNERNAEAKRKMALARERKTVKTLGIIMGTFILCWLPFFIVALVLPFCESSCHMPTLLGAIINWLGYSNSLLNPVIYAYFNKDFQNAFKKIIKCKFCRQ

[8] = molecular target: 5-HT1B (Homo sapiens, UniProt P28222); test: PDSP screening affinity 5-HT1B; format: binding
[9] = molecular target: 5-HT1D (Homo sapiens, UniProt P28221); test: PDSP screening affinity 5-HT1D; format: binding
[10] = molecular target: 5-ht1e (Homo sapiens, UniProt P28566); test: PDSP screening affinity 5-ht1e; format: binding
[11] = molecular target: T4, 5-HT3 (Homo sapiens, UniProt P46098); test: PDSP screening affinity 5-HT3; format: binding
T4 sequence (P46098 24-478): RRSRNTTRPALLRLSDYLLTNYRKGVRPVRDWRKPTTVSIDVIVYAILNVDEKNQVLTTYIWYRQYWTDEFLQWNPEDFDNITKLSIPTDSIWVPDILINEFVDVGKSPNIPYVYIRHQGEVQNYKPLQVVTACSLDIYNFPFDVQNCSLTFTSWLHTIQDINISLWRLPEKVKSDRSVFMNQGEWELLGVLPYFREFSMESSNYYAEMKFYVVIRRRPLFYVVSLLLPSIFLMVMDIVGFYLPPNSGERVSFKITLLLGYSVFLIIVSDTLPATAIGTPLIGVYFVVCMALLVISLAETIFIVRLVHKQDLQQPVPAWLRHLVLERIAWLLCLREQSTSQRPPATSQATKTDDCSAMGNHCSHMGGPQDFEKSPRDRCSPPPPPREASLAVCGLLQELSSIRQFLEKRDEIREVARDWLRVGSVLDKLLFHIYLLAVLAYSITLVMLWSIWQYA

[12] = molecular target: 5-ht5a (Homo sapiens, UniProt P47898); test: PDSP screening affinity 5-ht5a; format: binding
[13] = molecular target: 5-HT6 (Homo sapiens, UniProt P50406); test: PDSP screening affinity 5-HT6; format: binding
[14] = molecular target: 5-HT7 (Homo sapiens, UniProt P34969); test: PDSP screening affinity 5-HT7; format: binding
[15] = molecular target: r5-HT2A (Rattus norvegicus, UniProt P14842); test: Ca2+ mobilization assay; format: cell-based; details: for Emax: read-out: r5-HT2A Emax, percentage of the maximum response to 5-HT
[16] = molecular target: h5-HT2A (Homo sapiens, UniProt P28223); test: Ca2+ mobilization assay; format: cell-based; details: for Emax: HEK293, read-out: h5-HT2A Emax, percentage of the maximum response to 5-HT
[17] = molecular target: h5-HT2B (Homo sapiens, UniProt P41595); test: Ca2+ mobilization assay; format: cell-based; details: for Emax: HEK293, read-out: h5-HT2B Emax
[18] = molecular target: T5, r5-HT2C (Rattus norvegicus, UniProt P08909); test: Ca2+ mobilization assay; format: cell-based; details: for Emax: read-out: r5-HT2C Emax
T5 sequence (P08909 33-460): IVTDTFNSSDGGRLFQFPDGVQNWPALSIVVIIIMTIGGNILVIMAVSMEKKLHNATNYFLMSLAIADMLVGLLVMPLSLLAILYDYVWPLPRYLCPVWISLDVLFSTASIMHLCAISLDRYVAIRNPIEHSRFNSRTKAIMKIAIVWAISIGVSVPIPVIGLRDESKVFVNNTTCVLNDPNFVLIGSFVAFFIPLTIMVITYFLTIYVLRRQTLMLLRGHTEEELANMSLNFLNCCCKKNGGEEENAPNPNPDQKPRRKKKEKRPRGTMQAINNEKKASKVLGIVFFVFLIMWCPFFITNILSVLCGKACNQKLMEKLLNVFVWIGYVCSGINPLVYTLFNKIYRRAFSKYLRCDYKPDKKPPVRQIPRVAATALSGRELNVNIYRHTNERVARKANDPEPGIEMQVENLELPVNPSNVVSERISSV

[19] = molecular target: T6, h5-HT2C (Homo sapiens, UniProt P28335); test: Ca2+ mobilization assay; format: cell-based; details: for Emax: HEK293, read-out: h5HT2C Emax; for EC50: h5HT2C EC50, Ca2+ mobilization
T6 sequence (P28335 33-458): T2 sequence (P28335 33-458)

[20] = system: Male C57BL/6J mice; test: Mouse head twitch response; details: for activity in the HTR assay (active / inactive) / max counts / magnitude of peak effect × vehicle / maximally effective dose: SC; for activity in the HTR assay (active / inactive): doses up to 30 mg/kg; for max counts: HTR counts; for ED50: Mus musculus, sc, read-out: ED50 mg/kg (95% CI), mouse head twitch; for magnitude of peak effect × vehicle / maximally effective dose: mouse head twitch
[21] = r5-HT2A EC50, Ca2+ mobilization
[22] = h5-HT2B EC50, Ca2+ mobilization
[23] = r5-HT2C pEC50 ± SEM, Ca2+ mobilization
[24] = r5-HT2C EC50, Ca2+ mobilization

5-HT2B, sequence (P41595 whole entry): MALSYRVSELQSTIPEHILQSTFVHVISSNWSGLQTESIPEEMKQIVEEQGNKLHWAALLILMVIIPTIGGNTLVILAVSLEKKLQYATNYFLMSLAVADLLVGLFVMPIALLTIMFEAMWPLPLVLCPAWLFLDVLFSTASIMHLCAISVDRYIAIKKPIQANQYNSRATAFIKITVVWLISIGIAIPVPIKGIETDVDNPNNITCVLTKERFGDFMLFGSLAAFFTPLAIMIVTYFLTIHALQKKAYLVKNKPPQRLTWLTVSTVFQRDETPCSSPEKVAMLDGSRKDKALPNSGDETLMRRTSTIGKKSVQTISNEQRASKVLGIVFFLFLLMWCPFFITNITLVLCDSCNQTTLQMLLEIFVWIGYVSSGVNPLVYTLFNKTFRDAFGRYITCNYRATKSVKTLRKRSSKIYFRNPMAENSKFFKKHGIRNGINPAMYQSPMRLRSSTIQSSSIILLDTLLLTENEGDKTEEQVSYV
h5-HT2B, sequence (P41595 whole entry): as above
5-HT6, sequence (P50406 whole entry): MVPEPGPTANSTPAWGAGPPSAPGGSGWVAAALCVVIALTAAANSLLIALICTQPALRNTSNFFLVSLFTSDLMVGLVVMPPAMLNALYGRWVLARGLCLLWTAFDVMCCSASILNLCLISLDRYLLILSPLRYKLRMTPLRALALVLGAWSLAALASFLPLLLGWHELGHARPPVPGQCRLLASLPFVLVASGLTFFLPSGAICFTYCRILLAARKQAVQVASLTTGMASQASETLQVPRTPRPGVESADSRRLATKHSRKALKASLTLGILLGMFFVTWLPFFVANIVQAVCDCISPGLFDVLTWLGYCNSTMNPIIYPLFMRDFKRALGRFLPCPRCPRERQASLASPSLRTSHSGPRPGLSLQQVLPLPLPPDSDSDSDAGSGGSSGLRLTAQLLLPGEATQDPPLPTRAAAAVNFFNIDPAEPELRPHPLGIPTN
5-ht5a, sequence (P47898 whole entry): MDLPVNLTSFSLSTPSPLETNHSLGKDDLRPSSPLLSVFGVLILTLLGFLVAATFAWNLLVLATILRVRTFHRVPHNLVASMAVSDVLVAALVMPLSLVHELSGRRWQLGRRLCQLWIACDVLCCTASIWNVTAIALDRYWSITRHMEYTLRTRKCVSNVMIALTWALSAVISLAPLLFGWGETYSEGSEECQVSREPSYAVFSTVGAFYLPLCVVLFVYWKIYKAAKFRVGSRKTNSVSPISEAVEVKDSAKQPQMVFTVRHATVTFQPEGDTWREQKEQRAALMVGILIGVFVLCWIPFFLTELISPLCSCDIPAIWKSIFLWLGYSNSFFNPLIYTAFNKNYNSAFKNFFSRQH
5-HT7, sequence (P34969 whole entry): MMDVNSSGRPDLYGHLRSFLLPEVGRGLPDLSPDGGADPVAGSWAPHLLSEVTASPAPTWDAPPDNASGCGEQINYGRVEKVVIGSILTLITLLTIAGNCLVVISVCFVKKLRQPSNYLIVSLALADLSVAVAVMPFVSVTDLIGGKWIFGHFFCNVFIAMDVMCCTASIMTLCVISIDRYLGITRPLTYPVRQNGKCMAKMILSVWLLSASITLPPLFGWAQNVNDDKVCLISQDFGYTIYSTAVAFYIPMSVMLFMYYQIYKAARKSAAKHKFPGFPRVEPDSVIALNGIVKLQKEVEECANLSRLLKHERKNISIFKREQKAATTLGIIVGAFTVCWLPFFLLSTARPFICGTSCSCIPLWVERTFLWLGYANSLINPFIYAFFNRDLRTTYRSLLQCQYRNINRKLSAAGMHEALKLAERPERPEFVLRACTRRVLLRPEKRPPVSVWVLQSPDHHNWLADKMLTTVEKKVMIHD
5-HT1D, sequence (P28221 whole entry): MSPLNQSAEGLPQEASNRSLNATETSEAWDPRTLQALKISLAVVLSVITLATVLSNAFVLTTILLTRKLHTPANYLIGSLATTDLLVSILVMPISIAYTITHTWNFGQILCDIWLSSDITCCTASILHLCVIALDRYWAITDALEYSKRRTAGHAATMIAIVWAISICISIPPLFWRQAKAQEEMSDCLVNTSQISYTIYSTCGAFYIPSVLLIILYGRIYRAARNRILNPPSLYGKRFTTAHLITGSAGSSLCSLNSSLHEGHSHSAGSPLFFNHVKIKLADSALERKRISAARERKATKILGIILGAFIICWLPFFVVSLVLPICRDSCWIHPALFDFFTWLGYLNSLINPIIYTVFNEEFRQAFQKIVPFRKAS
T1 sequence (P28223 whole entry): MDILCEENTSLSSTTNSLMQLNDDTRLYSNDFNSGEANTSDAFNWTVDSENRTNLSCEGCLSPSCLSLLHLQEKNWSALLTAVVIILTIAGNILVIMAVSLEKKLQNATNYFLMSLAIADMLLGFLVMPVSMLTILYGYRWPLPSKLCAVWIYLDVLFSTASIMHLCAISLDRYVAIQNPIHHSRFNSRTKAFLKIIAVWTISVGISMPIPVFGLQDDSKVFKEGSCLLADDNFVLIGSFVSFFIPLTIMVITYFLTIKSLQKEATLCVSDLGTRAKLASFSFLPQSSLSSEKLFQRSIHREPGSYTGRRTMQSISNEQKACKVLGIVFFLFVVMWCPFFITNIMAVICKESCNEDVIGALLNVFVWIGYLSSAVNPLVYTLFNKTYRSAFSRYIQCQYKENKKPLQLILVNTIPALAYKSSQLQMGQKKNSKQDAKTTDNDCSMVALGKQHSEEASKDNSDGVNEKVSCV
h5-HT2A, sequence (P28223 whole entry): as above
5-ht1e, sequence (P28566 whole entry): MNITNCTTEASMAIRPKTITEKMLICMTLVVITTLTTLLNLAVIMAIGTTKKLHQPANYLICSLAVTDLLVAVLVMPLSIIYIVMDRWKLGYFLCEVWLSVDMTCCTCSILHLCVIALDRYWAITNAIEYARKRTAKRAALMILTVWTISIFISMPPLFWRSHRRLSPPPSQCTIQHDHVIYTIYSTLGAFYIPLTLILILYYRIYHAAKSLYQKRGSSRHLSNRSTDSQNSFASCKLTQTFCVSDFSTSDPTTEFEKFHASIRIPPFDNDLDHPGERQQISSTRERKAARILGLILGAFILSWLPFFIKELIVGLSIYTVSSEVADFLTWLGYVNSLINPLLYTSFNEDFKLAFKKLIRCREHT
5-HT1B, sequence (P28222 whole entry): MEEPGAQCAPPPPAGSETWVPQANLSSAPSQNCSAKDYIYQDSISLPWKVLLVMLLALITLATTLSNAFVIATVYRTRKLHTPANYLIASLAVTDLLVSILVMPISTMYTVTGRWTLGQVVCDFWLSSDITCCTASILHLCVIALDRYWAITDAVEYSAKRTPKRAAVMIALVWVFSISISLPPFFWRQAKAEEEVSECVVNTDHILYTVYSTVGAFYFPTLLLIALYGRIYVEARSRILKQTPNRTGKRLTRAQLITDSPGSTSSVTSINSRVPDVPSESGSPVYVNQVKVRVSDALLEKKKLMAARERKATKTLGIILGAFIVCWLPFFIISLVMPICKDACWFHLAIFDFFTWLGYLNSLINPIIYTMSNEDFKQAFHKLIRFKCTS
r5-HT2A, sequence (P14842 whole entry): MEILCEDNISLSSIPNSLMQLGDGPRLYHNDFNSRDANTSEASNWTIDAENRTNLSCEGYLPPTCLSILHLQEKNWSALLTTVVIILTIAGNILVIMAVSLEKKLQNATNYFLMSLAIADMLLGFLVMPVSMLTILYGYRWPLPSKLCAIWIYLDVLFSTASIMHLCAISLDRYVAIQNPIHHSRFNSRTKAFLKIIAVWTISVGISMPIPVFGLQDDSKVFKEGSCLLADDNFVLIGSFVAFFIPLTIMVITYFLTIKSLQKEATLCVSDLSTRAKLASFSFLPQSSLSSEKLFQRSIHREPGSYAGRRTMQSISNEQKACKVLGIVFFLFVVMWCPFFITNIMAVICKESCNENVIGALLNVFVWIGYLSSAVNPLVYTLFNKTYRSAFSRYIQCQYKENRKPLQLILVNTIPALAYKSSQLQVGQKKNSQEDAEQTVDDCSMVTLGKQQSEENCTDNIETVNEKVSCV

SMILES	doses producing the head twitch in mice [1]	Ki [2]	Ki [3]	Ki [4]	Ki [5]	Ki [7]	Ki ([8]; 5-HT1B affinity)	Ki [9]	Ki [10]	Ki [11]	Ki ([12]; 5-ht5a affinity)	Ki ([13]; 5-HT6 affinity)	Ki ([14]; 5-HT7 affinity)	EC50 [15, 21]	EC50 [16]	Emax [16]	Emax [17]	EC50 [17, 22]	Emax [18]	Emax [19]	also measured
COc1cc(C[C@@H](C)N)c(OC)cc1C [R-DOM, R-(−)-2,5-dimethoxy-4-methylamphetamine]	≤ 1 mg/kg																				
COc1cc(C[C@@H](C)N)c(OC)cc1Br [R-DOB, R-(−)-2,5-dimethoxy-4-bromoamphetamine]	≤ 1 mg/kg																				
COc1ccc2[nH]cc(CCN(C(C)C)C(C)C)c2c1 [5-MeO–DIPT, 5-MeO-N,N-diisopropyltryptamine]	≤ 1 mg/kg																				
CN(C)CCc1c[nH]c2cccc(O)c12 [psilocin]	≤ 1 mg/kg																				
CCCSc1cc(OC)c(CCN)cc1OC [Compound 2C-T-7, 2,5-dimethoxy-4-propylthiophenethylamine]	≤ 1 mg/kg																				
COc1cc(CCNCc2cccc(Br)c2)c(OC)cc1I [Compound 4d, N-(3-Bromobenzyl)-2-(4-iodo-2,5-dimethoxyphenyl)ethan-1-amine]		3.98 nM	0.57 nM	7.59 nM	1.62 nM	670 nM	1570 nM	162 nM	792 nM	> 10000 nM	1010 nM	175 nM	355 nM	14 nM	17 nM	87.5 ± 1.3%	90 ± 2%	85 nM	101 ± 2%	74 ± 5%	Ki ([6]; 5-HT2B pKi ± SEM): 12.9 nM; Ki ([12]; 5-ht5a pKi ± SEM): 1000 nM; r5-HT2A Emax ([15]; percentage of the maximum response to 5-HT): 68.5 ± 0.9%; EC50 ([15]; r5-HT2A pEC50 ± SEM, Ca2+ mobilization): 15.8 nM; EC50 ([17]; h5-HT2B pEC50 ± SEM, Ca2+ mobilization, NA = not active, Emax ≤ 15%): 89.1 nM; EC50 [18, 23]: 36.3 nM; activity in the HTR assay (active / inactive) [20]: inactive
COc1cccc(CNCCc2cc(OC)c(I)cc2OC)c1 [Compound 4a, N-(3-Methoxybenzyl)-2-(4-iodo-2,5-dimethoxyphenyl)ethan-1-amine]		1.55 nM	0.269 nM	4.17 nM	0.126 nM	925 nM	3230 nM	439 nM	1710 nM	> 10000 nM	57 nM	67 nM	583 nM	27 nM	28 nM	71.6 ± 0.9%	≤ 15%	38 nM	91 ± 3%	41 ± 6%	Ki ([6]; 5-HT2B affinity): 4.6 nM; Emax [15]: 51.7 ± 0.9%; EC50 [18, 24]: 133 nM; EC50 [19]: 33.8 nM; max counts [20]: 11.4; ED50 [20]: 4.34 mg/kg; activity in the HTR assay (active / inactive) [20]: active; magnitude of peak effect × vehicle [20]: 5.7 × vehicle; maximally effective dose [20]: 30 mg/kg
COc1ccc2[nH]cc(CCNCc3cccc(Cl)c3)c2c1 [Compound 5h, N-(3-Chlorobenzyl)-2-(5-methoxy-1H-indol-3-yl)ethan-1-amine]		5.25 nM	1.05 nM	28.2 nM	4.27 nM	195 nM	4390 nM	282 nM	> 10000 nM	> 10000 nM	2310 nM	50 nM	281 nM	83 nM	14 nM	81.2 ± 1.3%	≤ 15%	50 nM	105 ± 2%	85 ± 6%	Ki ([6]; 5-HT2B affinity): 6.6 nM; Ki ([6]; 5-HT2B pKi ± SEM): 6.92 nM; Emax [15]: 70.1 ± 1%; EC50 [18, 24]: 286 nM; EC50 [19]: 316 nM; max counts [20]: 10.6; ED50 [20]: 4.43 mg/kg; magnitude of peak effect × vehicle [20]: 8.0 × vehicle; maximally effective dose [20]: 30 mg/kg
COc1ccc2[nH]cc(CCNCc3cccc(I)c3)c2c1 [Compound 5i, N-(3-Iodobenzyl)-2-(5-methoxy-1H-indol-3-yl)ethan-1-amine]		3.47 nM	0.62 nM	6.46 nM	1.05 nM	122 nM		199 nM	> 10000 nM	> 10000 nM	1540 nM	27 nM		120 nM	16 nM	79 ± 1.1%	31 ± 2%	43 nM	110 ± 3%	94 ± 5%	h5-HT2A Ki ([3]; [125I]DOI): subnanomolar affinity; Ki ([6]; 5-HT2B affinity): 0.76 nM; 5-HT1B pKi ± SEM [8]: 5.53 ± 0.05; Ki ([8]; read-out: 5-HT1B affinity): 2960 nM; Ki ([13]; 5-HT6 pKi ± SEM): 26.3 nM; Ki ([14]; 5-HT7 pKi ± SEM): 21.9 nM; Emax [15]: 73.4 ± 1.4%; EC50 [18, 24]: 313 nM; EC50 [18, 23]: 309 nM; EC50 [19]: 445 nM; max counts [20]: 20.2; ED50 [20]: 7.77 mg/kg; magnitude of peak effect × vehicle [20]: 3.4 × vehicle; maximally effective dose [20]: 30 mg/kg
COc1ccc2[nH]cc(CCNCc3ccccc3Br)c2c1 [Compound 5d, N-(2-Bromobenzyl)-2-(5-methoxy-1H-indol-3-yl)ethan-1-amine]		25.1 nM	2.34 nM	100 nM	14.1 nM	286 nM	> 10000 nM	782 nM	> 10000 nM	6170 nM	> 10000 nM	203 nM	1090 nM	450 nM	30 nM	74.7 ± 1.5%	≤ 15%	168 nM	104 ± 3%	94 ± 5%	selectivity h5-HT2A versus h5-HT2C, affinity at the [125I]-DOI-labeled receptors ([3]; agonist-labeled receptors): 6 fold; Ki ([6]; 5-HT2B pKi ± SEM): 24 nM; Emax [15]: 49.7 ± 1.2%; EC50 [18, 24]: 898 nM; EC50 [19]: 439 nM; activity in the HTR assay (active / inactive) [20]: failed to induce the HTR; also recorded: inactive
